Measured values reported in publication PMC8126888 (RSC Medicinal Chemistry, 2020).
Read-outs that look alike come from different tables or passages of the source.

Tests used:
in vitro [1] = conditions: PAMPA
in vitro [2] = conditions: human
[3] = system: Leishmania infantum MHOM/MA(BE)/67/ITMAP263 intracellular amastigotes; assay: microbe, parasite or virus in culture; conditions: Macrophage, in Mus musculus
in vitro [4] = conditions: mouse, microsomes, mouse liver microsomes
in vitro [5] = conditions: Swiss, mouse
[6] = system: primary peritoneal mouse macrophages (PMM); conditions: PMM IC50 / L. infantum IC50
in vitro [7] = conditions: human, microsomes, human liver microsomes
physchem = conditions: HPLC, Ascentis Express RP Amide column, pH 7.4, eLogD
[8] = system: Trypanosoma cruzi, Tulahuen CL2, beta-galactosidase strain; assay: microbe, parasite or virus in culture
in vitro [9] = conditions: human, HepG2 cells
[10] = system: Leishmania infantum (MHOM/MA/67/ITMAP-263) intracellular amastigotes in THP-1; assay: microbe, parasite or virus in culture; conditions: THP-1, read-out: L. infantum MHOM/MA/67/ITMAP263 intracellular amastigotes THP-1 cells IC50 (uM)
in vitro [11] = conditions: PAMPA; remark: listed apart in the source
[12] = system: primary peritoneal mouse macrophages (PMM); assay: cells; conditions: Macrophage, read-out: PMM IC50 (uM)
in vitro [13] = conditions: human, HFF-1 cells
in vitro [14] = conditions: human, THP-1 cells differentiated with PMA
[15] = read-out: L. Inf. pIC50, from L. infantum intracellular amastigote IC50 (converted)
[16] = read-out: L. infantum MHOM/MA(BE)/67/ITMAP263 intracellular amastigotes IC50
[17] = MRC5, read-out: T. cruzi Tulahuen C4 (LacZ) IC50
[18] = read-out: L. infantum MHOM/MA(BE)/67/ITMAP263 intracellular amastigotes IC50 (uM), intracellular amastigotes
[19] = MRC5, read-out: T. cruzi Tulahuen C4 (LacZ) IC50 (uM)

Row | Structure (SMILES) | Papp (in vitro [1]) | CC50 at 3 days (in vitro [2]) | IC50 [3, 15] | IC50 [3, 16] | microsomal CLint at 0.5 μM (in vitro [4]; pH 7.4, MLM CLint) | IC50 (in vitro [5]) | SI (vs PMM) [6] | microsomal CLint at 0.5 μM (in vitro [7]; pH 7.4, HLM CLint) | chromatographic logD (physchem) | IC50 [8, 17] | IC50 [3, 18] | CC50 (in vitro [9]) | microsomal CLint at 0.5 μM (in vitro [4]; pH 7.4, MLM CLint (uL/min/mg)) | IC50 [10] | Papp (in vitro [11]) | IC50 [12] | CC50 (in vitro [13]) | microsomal CLint at 0.5 μM (in vitro [7]; pH 7.4, HLM CLint (uL/min/mg)) | chromatographic logD (physchem; experimental) | CC50 at 120 h (in vitro [14]) | other results
1 | CCN(Cc1ccccc1)S(=O)(=O)c1ccccc1C#N [DNDI0002574585] | 16.6 ×10⁻⁶ cm/s | > 64 µM | 25.7 µM | 25.6 µM | 1060 µL/min/mg | > 64 µM | 2 | 306 µL/min/mg | 3.5 | 29.3 µM | – | – | – | – | – | – | – | – | – | – | –
2 | COc1ccc(OC)c(S(=O)(=O)N(Cc2ccccc2)Cc2ccccc2)c1 [DNDI0003292440] | 0.43 ×10⁻⁶ cm/s | 45.2 µM | 0.372 µM | 0.36 µM | 1300 µL/min/mg | > 64 µM | – | 242 µL/min/mg | – | 5.71 µM | – | – | – | – | – | – | – | – | – | – | –
3 | CCN(Cc1ccccc1)S(=O)(=O)c1ccc(C)cc1 [DNDI0003297129] | 5.38 ×10⁻⁶ cm/s | > 64 µM | 49 µM | 49.4 µM | – | > 64 µM | 1 | 1740 µL/min/mg | 4.1 | 28.8 µM | – | – | – | – | – | – | – | – | – | – | –
4 | CCN(Cc1ccccc1)S(=O)(=O)c1ccc(OC)cc1 [DNDI0003297130] | 7.68 ×10⁻⁶ cm/s | > 64 µM | 11 µM | 11 µM | 3010 µL/min/mg | > 64 µM | 6 | 676 µL/min/mg | 3.9 | 18.5 µM | – | – | – | – | – | – | – | – | – | – | –
5 | CCC(Cc1ccccc1)Sc1nc(C)cc(C)c1C#N (stereo not drawn) [DNDI0003297457] | 0.19 ×10⁻⁶ cm/s | > 64 µM | 2.63 µM | 2.64 µM | 1900 µL/min/mg | 40.3 µM | 15 | 2010 µL/min/mg | 5.4 | 6.9 µM | – | – | – | – | – | – | – | – | – | – | –
6 | CCC(Cc1ccccc1)[S+]([O-])c1nc(C)cc(C)c1C#N (stereo not drawn) [DNDI0003297458] | 13.4 ×10⁻⁶ cm/s | > 64 µM | 47.9 µM | 47.6 µM | 1560 µL/min/mg | > 64 µM | 1 | 1230 µL/min/mg | 3.2 | > 64 µM | – | – | – | – | – | – | – | – | – | – | –
7 | CC[C@H](Cc1ccccc1)[S+]([O-])c1ccccc1OC (stereo partly drawn) [DNDI0003362001] | 9.42 ×10⁻⁶ cm/s | > 64 µM | 52.5 µM | 52.5 µM | 3620 µL/min/mg | > 64 µM | 1 | 390 µL/min/mg | 3.7 | 31.5 µM | – | – | – | – | – | – | – | – | – | – | –
8 | CC[C@H](Cc1ccccc1)S(=O)(=O)c1ccccc1OC [DNDI0003362003] | 19.8 ×10⁻⁶ cm/s | > 64 µM | 34.7 µM | 34.6 µM | 1060 µL/min/mg | > 64 µM | 2 | 458 µL/min/mg | 3.5 | 31.7 µM | – | – | – | – | – | – | – | – | – | – | –
9 | CCCCC(=O)Nc1cccnc1S(=O)(=O)CCc1ccccc1 [DNDI0003363561] | 18.9 ×10⁻⁶ cm/s | > 64 µM | > 64 µM | > 64 µM | – | > 64 µM | 1 | – | 3.9 | > 64 µM | – | – | – | – | – | – | – | – | – | – | –
10 | O=S(=O)(NCc1ccccc1)c1ccccc1 [DNDI0003363562] | 21.6 ×10⁻⁶ cm/s | > 64 µM | > 64 µM | > 64 µM | 161 µL/min/mg | > 64 µM | 1 | 50 µL/min/mg | 2.9 | > 64 µM | – | – | – | – | – | – | – | – | – | – | –
11 | CCN(Cc1ccccc1)S(=O)(=O)c1ccccc1 [DNDI0003363563] | 7.54 ×10⁻⁶ cm/s | > 64 µM | > 64 µM | > 64 µM | 1180 µL/min/mg | > 64 µM | 1 | 418 µL/min/mg | 3.8 | 32.1 µM | – | – | – | – | – | – | – | – | – | – | –
12 | CCN(Cc1ccccc1)S(=O)(=O)c1ccccc1OC [DNDI0003363820] | 18.5 ×10⁻⁶ cm/s | 36.3 µM | 11 µM | 11 µM | 1370 µL/min/mg | > 64 µM | 6 | 406 µL/min/mg | 3.6 | 30.1 µM | – | – | – | – | – | – | – | – | – | – | –
13 | COCCN(Cc1ccccc1)S(=O)(=O)c1ccccc1 [DNDI0003363821] | 25.3 ×10⁻⁶ cm/s | > 64 µM | 40.7 µM | 40.5 µM | 2990 µL/min/mg | > 64 µM | 2 | 239 µL/min/mg | 3.5 | 39.3 µM | – | – | – | – | – | – | – | – | – | – | –
14 | CCN(Cc1ccccc1)S(=O)(=O)c1cc(OC)ccc1OC [DNDI0003365407] | 11.9 ×10⁻⁶ cm/s | > 64 µM | 2.51 µM | 2.53 µM | 3500 µL/min/mg | > 64 µM | 25 | 534 µL/min/mg | – | 27.4 µM | – | – | – | – | – | – | – | – | – | – | –
15 | COc1ccc(Cl)cc1S(=O)(=O)N(CCO)Cc1ccccc1 [DNDI0003366068] | 20.1 ×10⁻⁶ cm/s | > 64 µM | 37.2 µM | 37.5 µM | – | > 64 µM | 2 | 180 µL/min/mg | 3.5 | 26.8 µM | – | – | – | – | – | – | – | – | – | – | –
16 | O=C(c1ccc(OCC2CCCO2)c(S(=O)(=O)NCc2ccccc2)c1)N1CCOCC1 (stereo not drawn) [DNDI0003407877] | – | > 64 µM | > 64 µM | – | – | – | – | – | – | – | > 64 µM | > 64 µM | 181 µL/min/mg | > 64 µM | 14.7 ×10⁻⁶ cm/s | > 64 µM | > 64 µM | 85 µL/min/mg | 2.7 | > 64 µM | IC50 [8, 19]: 31 µM
17 | COc1ccc(S(N)(=O)=O)cc1S(=O)(=O)NCc1ccccc1 [DNDI0003407892] | – | > 64 µM | > 64 µM | – | – | – | – | – | – | – | > 64 µM | > 64 µM | 23 µL/min/mg | > 64 µM | 0.61 ×10⁻⁶ cm/s | > 64 µM | > 64 µM | 20 µL/min/mg | 1.1 | > 64 µM | IC50 [8, 19]: > 64 µM
18 | COc1ccc(C(=O)N2CCOCC2)cc1S(=O)(=O)N(Cc1ccc(C(F)(F)F)nc1)C(C)c1ccc(F)cc1 (stereo not drawn) [DNDI0003407905] | – | > 64 µM | 2.34 µM | – | – | – | – | – | – | – | 2.36 µM | > 64 µM | 531 µL/min/mg | 9.86 µM | 18.1 ×10⁻⁶ cm/s | > 64 µM | 49.4 µM | 267 µL/min/mg | 3.8 | > 64 µM | IC50 [8, 19]: 25 µM
19 | COc1cc2c(cc1S(=O)(=O)N(Cc1ccccc1)Cc1ccccc1)S(=O)(=O)NCN2 [DNDI0003425513] | – | 22.9 µM | 2.51 µM | – | – | – | – | – | – | – | 2.53 µM | > 64 µM | 249 µL/min/mg | 48.3 µM | 0.38 ×10⁻⁶ cm/s | > 64 µM | 21.9 µM | 100 µL/min/mg | 3.6 | > 64 µM | IC50 [8, 19]: 9.44 µM
20 | COc1ccc(S(C)(=O)=O)cc1S(=O)(=O)N(Cc1ccccc1)CC(C)(C)C [DNDI0003425524] | – | > 64 µM | 2.69 µM | – | – | – | – | – | – | – | 2.69 µM | > 64 µM | 1100 µL/min/mg | 47.7 µM | 14.1 ×10⁻⁶ cm/s | > 64 µM | 57.2 µM | 1050 µL/min/mg | 3.6 | > 64 µM | IC50 [8, 19]: 28.7 µM
21 | COc1ccc(S(C)(=O)=O)cc1S(=O)(=O)N(Cc1ccccc1)Cc1cc(C(F)(F)F)nn1C [DNDI0003578374] | – | > 64 µM | 13.2 µM | – | – | – | – | – | – | – | 13.1 µM | > 64 µM | 182 µL/min/mg | > 64 µM | 7.6 ×10⁻⁶ cm/s | > 64 µM | > 64 µM | 60 µL/min/mg | 3.5 | > 64 µM | IC50 [8, 19]: > 64 µM
22 | COc1ccc(C#N)cc1S(=O)(=O)N(Cc1ccc(C(F)(F)F)nc1)Cc1ccc(C(F)(F)F)nc1 [DNDI0003578377] | – | > 64 µM | 38 µM | – | – | – | – | – | – | – | 38.1 µM | > 64 µM | 64 µL/min/mg | > 64 µM | 3.45 ×10⁻⁶ cm/s | > 64 µM | > 64 µM | 17 µL/min/mg | 3.9 | > 64 µM | IC50 [8, 19]: 61.7 µM
